Experimental data reported in PubChem BioAssay AID1322 (NMMLSC, 2008).
Activity calls are given as the source filed them. The rule behind the calls is not given here.

Target: Bcl-2-like protein 1 (Homo sapiens) (UniProt Q07817)
Assay: Bim-Bcl-XL interaction inhibitors, potency, dose response, biochemical, multiplexed, bead flow cytometry, human Bcl-XL (AID 1322); for inhibition: test concentration not given here
Details: Bead-based flow cytometry, Bim peptide-Bcl-XL binding, MCF; for inhibition: stronger effect = higher value

Chain of Bcl-2-like protein 1 (Homo sapiens) (Q07817 whole entry, looked up): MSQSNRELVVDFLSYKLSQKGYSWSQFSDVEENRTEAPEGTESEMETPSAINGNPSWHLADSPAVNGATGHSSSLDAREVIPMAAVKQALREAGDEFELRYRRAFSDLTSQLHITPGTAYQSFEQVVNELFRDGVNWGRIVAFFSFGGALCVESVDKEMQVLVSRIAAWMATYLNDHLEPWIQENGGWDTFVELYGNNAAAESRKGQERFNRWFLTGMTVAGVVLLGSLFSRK

Row | Compound | inhibition | further results
1 | Nc1ccc(Nc2nc(-c3ccncc3)cs2)cc1 | inactive | 
2 | COc1ccccc1-n1c(-c2ccc(Cl)cc2)c[nH]c1=S | inactive | 
3 | CC(=O)OCCNc1cc(Sc2nc3ccccc3[nH]2)c2nonc2c1[N+](=O)[O-] | inactive | 
4 | O=C(COc1ccccc1Br)NCc1ccccn1 | inactive | 
5 | Cc1cccc(/C=N/N(CCO)C2=NS(=O)(=O)c3ccccc32)c1 | inactive | 
6 | CCSc1ncc(Cl)c(C(=O)Nc2sc3c(c2C(=O)NCc2cccnc2)CCCC3)n1 | inactive | 
7 | CC(C)CCN1CCN(Cc2cccc3cccnc23)CC1CCO (centres undefined) |  | outcome: inactive
8 | CCCCCCn1nc(C(=O)Nc2nc3c(s2)CCCC3)c2ccccc2c1=O | inactive | 
9 | CNC(=O)/C(C#N)=C/c1c(N(Cc2ccccc2)Cc2ccccc2)nc2c(C)cccn2c1=O | inactive | 
10 | COc1ccc(CC(=O)Nc2ccc(C(=O)Nc3nccs3)cc2)cc1OC | inactive | 
11 | O=C1C(Cl)=C(Nc2ccccc2O)C(=O)N1c1ccccc1 | inactive | 
12 | O=C1c2ccccc2C(=O)N1CN(C(=O)COc1ccc(Cl)cc1Cl)c1cccc(F)c1 | inactive | 
13 | COc1ccc(C2=Nc3cccc4cccc(c34)N2)cc1 | inactive | 
14 | CCOC(=O)CSC1=NC(=O)/C(=C/c2ccc(OC)cc2)S1 | inactive | 
15 | CCN1CCN(CC(=O)c2c[nH]c3ccc(C)cc23)CC1 | inactive | 
16 | Cc1ccc(NN2C(=O)C=CC2=O)cc1 |  | outcome: inactive
17 | Cc1ccc(NC(=O)c2cc(S(=O)(=O)NCCC3=CCCCC3)ccc2F)cc1F |  | outcome: inactive
18 | C#CCOCCOCCOCCNc1nc(N2CCN(C(=O)[C@H]([C@@H](C)CC)n3cc([C@@H](N)CC(C)C)nn3)CC2)nc(N2CCN(C(=O)[C@H](Cc3cc4ccccc4[nH]3)n3cc([C@@H](N)Cc4ccc(O)cc4)nn3)CC2)n1 | inactive | 
19 | COc1ccccc1Oc1ccc2c(c1)C(=O)N(c1ccccc1)C2=O | inactive | 
20 | CN1CCN(c2ccc(N)cc2)CC1 | inactive | 
21 | CN(CC(=O)O/N=C(\N)c1ccc([N+](=O)[O-])cc1)S(=O)(=O)c1ccccc1 | inactive | 
22 | COc1ccccc1OCc1ccc(C(=O)Nc2ccccc2F)cc1 | inactive | 
23 | Cc1ccc(-c2cc(-c3ccc4c(c3)OCO4)c(C#N)c(N)n2)o1 | inactive | 
24 | COCCNC(=O)CN1CCC(NC(=O)Nc2ccccc2)CC1 | inactive | 
25 | COc1ccccc1-n1c(-c2ccccc2)c[nH]c1=S | inactive | 
26 | O=C(Oc1ccc(-c2cnc3ccccc3n2)cc1)c1cccc([N+](=O)[O-])c1 | inactive | 

Row | Compound | inhibition | further results
27 | COc1ccc(C2=Nn3c(nnc3-c3ccccn3)SC2)cc1OC | inactive | 
28 | CC(C)(C)NC(=O)COc1ccc(CNc2ccc3[nH]c(=O)[nH]c3c2)cc1 | inactive | 
29 | COc1ccc(N2C(=O)/C(=C/c3cccs3)NC2=S)cc1 | inactive | 
30 | CN(C)CCNC(=O)C(=O)C1C(=O)Nc2ccccc21 (centres undefined) |  | outcome: inactive
31 | CN(C)C(=O)N1CCC(C(=O)NC2CCCCCCC2)CC1 | inactive | 
32 | Cc1ccc2cc(C)c(Sc3nnnn3-c3ccccc3)nc2c1 | inactive | 
33 | CCN(CC)c1ccc(NC(=O)c2ccccc2F)cc1S(=O)(=O)Nc1ccccc1OC | inactive | 
34 | O=C(O)c1ccc(NC2=C/C(=N/S(=O)(=O)c3ccccc3)c3ccccc3C2=O)cc1 | inactive | 
35 | Cc1c(Cc2ccccc2)sc(N)c1C(N)=O | inactive | 
36 | CC1=C2C(CCS2(=O)=O)CC2(C1)C(=O)OC(C)(C)OC2=O (centres undefined) | inactive | 
37 | Cc1ccc2c(c1)C1CN(C)CCC1N2C(=O)Nc1cccc(Cl)c1 (centres undefined) | inactive | 
38 | COc1ccc(NC(=O)c2ccco2)cc1NC(=O)c1ccco1 | inactive | 
39 | Cc1ccc(CNc2ccc3c(c2)OCO3)c(C)c1 | inactive | 
40 | CCN1CCN(c2cc(C)c3cc(NC(=S)N4CC(C)CC(C)C4)ccc3n2)CC1 (centres undefined) | inactive | 
41 | COc1cc(C2Nc3cccc4cccc(c34)N2)cc(OC)c1O | inactive | 
42 | Cc1ccc(N=C2NC(=O)/C(=C/C=C/c3ccco3)S2)cc1 | inactive | 
43 | Cc1cc(C)c(C)c(S(=O)(=O)N2CCN(CC(=O)NC(=O)NCc3ccccc3)CC2)c1C | inactive | 
44 | CCN1C(=O)/C(=C\C=C2/C=CC=CN2CC)SC1=S | inactive | 
45 | CCN1CCN(c2cc(C)c3cc(NC(=S)N4CCCCC4)ccc3n2)CC1 | inactive | 
46 | Cc1cccn2c(=O)c3cc(C(N)=S)c(=N)n(CCCN4CCOCC4)c3nc12 | inactive | 
47 | Cc1ccc(-c2nc3c(c(=O)[nH]c(=O)n3Cc3ccccc3)n2C)o1 | inactive | 
48 | CCNC(=O)N1c2ccc(OCC)cc2C(C)=CC1(C)C | inactive | 
49 | C=CCn1c(C)cc(-c2csc(NC)n2)c1C | inactive | 
50 | Cc1cc(N2CCN(C)CC2)nc2ccc(NC(=S)N3CCCCC3)cc12 | inactive | 
51 | O=C(C1=NN(c2ccccc2)C2C(=O)N(c3ccccc3)C(=O)C12)c1ccccc1 (centres undefined) | inactive | 
52 | CN1CCS/C1=C/C=C1/SC(=S)N(Cc2ccccc2)C1=O | inactive | 

Row | Compound | inhibition | further results
53 | Cc1ccccc1-n1nc(SCC(=O)O)sc1=S | inactive | 
54 | CCCCC(=O)Nc1ccc(C(=O)N2CCC(C(=O)OCC)CC2)cc1 | inactive | 
55 | Nc1ccc(N2CCN(CCCCN3C(=O)C4CCCN4C3=O)CC2)cc1 (centres undefined) | inactive | 
56 | COc1ccc(C(=S)N2CCCCCC2)cc1 | inactive | 
57 | CC1Nc2ccccc2C(=O)N1NS(=O)(=O)c1ccccc1 (centres undefined) |  | outcome: inactive
58 | CC1(C)Cc2c(ccc3ccccc23)/C(=C/C(=O)N2CCCCC2)N1 | inactive | 
59 | Cc1ccc(-n2nc(C)c(C(=O)O)n2)c(C)c1 | inactive | 
60 | Cc1ccc(N=c2ssnc2Cl)cc1 | inactive | 
61 | Cc1ccc(-c2cc(C(=O)Nc3cccnc3)c3ccccc3n2)o1 | inactive | 
62 | CCn1c(C)nc2cc(C(=O)N/N=C/c3ccc(O)c(O)c3O)ccc21 | inactive | 
63 | Cc1cccc(-c2nnc3n2N=C(c2ccccc2)CS3)c1 | inactive | 
64 | CCOC(=O)c1ccc(NC(=O)CSCCC(=O)O)cc1 | inactive | 
65 | COc1ccc(/C=C(/C(=O)c2cccs2)N2C=CC=CC2=C(C#N)C#N)cc1 | inactive | 
66 | Cc1cc(-c2nn(-c3ccccc3)cc2/C=C2\SC(N)=NC2=O)ccc1OC(C)C | inactive | 
67 | COc1cccc(/C=C2/SC(=O)N(C)C2=O)c1OCc1ccc(C(=O)O)cc1 | inactive | 
68 | CCOC(=O)c1nn(-c2ccccc2)c(C#N)c1N |  | outcome: inactive
69 | N#Cc1cccc(N=c2ssnc2Cl)c1 | inactive | 
70 | CCCn1c(C)cc(-c2csc(N)n2)c1C | inactive | 
71 | CCN1/C(=C/c2ccc3cc(C)cc(C)c3[n+]2CC)Sc2cc(C)ccc21 | inactive | 
72 | Cn1c(=O)c2cc(S(=O)(=O)Nc3cc(C(=O)O)cc(C(=O)O)c3)ccc2n(C)c1=O |  | outcome: inactive
73 | Fc1ccc(/C=C2\CCCC3=C2NC(=S)NC3c2ccc(F)cc2)cc1 (centres undefined) | inactive | 
74 | Clc1ccc(N=c2ssnc2Cl)nc1 |  | outcome: inactive
75 | CCOC(=O)C1(CC/C(C)=N\NC(N)=O)CC(C)(C)OC1=O (centres undefined) | inactive | 
76 | CCOC(=O)c1nc(Nc2ccc(Nc3ccccc3)cc2)c2ccccc2n1 | inactive | 
77 | C/C(=N\NC(=O)Cc1cccn1C)c1ccc2ccccc2c1 | inactive | 
78 | COc1ccc(NC(=O)/C(Cl)=C(/Cl)S(=O)Cc2ccccc2)cn1 (centres undefined) | inactive | 

Row | Compound | inhibition | further results
79 | CCOc1cc(CNc2ccc(N(C)C)cc2)cc(Br)c1OCC(=O)NC(C)(C)C | inactive | 
80 | CCN1CCN(c2ccc(NC(=O)c3ccc4c(c3)[nH]c(=O)n4Cc3ccc(OC)cc3)cc2)CC1 | inactive | 
81 | S=C(Nc1ccccc1)N1CCn2cccc2C1c1cccnc1 (centres undefined) | inactive | 
82 | O=C(Nc1ccccc1)Nc1ccc2ncoc2c1 | inactive | 
83 | Cc1onc(-c2ccccc2)c1C(=O)Nc1nnc(COc2ccc(Cl)cc2)s1 | inactive | 
84 | O=C(NCc1ccccn1)c1ccc2nc(-c3ccco3)c(-c3ccco3)nc2c1 | inactive | 
85 | BrC(=C\c1ccccc1)/C=N/N1CCN(c2ccccc2)CC1 |  | outcome: inactive
86 | Clc1nc2ccccc2cc1/C=N/Nc1nc2ccccc2[nH]1 |  | EC50: inactive
87 | Cc1ccc(Nc2nc(-c3c(C)nc4ncccn34)cs2)cc1 | inactive | 
88 | CCN(CC)C(=O)COC(=O)c1cc(-c2ccco2)nc2ccccc12 |  | outcome: inactive
89 | O=C(C1=C(Nc2ccccc2)c2ccccc2S(=O)(=O)N1)c1ccccc1 | inactive | 
90 | COc1ccc(NC(=O)/C(C#N)=C/c2c(C)nn(-c3ccc(F)cc3)c2Cl)cc1Cl | inactive | 
91 | Cc1noc(C)c1CN1C(=O)NC(Cc2ccccc2)(Cc2ccccc2)C1=O | inactive | 
92 | CNC(CC(=O)c1ccc([N+](=O)[O-])cc1)C(Cl)(Cl)Cl (centres undefined) |  | outcome: inactive
93 | Cc1cc(C(=O)NCCCN(C)C)c2ccccc2n1 | inactive | 
94 | Cc1ccc(/C=C/C(=O)c2ccccc(=O)c2O)cc1C | inactive | 
95 | O=C(Nc1n[nH]c(C(F)(F)F)n1)C1CC1 | inactive | 
96 | c1ccc(-c2nnc(OCCN3CCOCC3)c3ccccc23)cc1 | inactive | 
97 | N/C(=N\OC(=O)CCC1CCCC1)c1ccncc1 |  | outcome: inactive
98 | S=C(Nc1ccc(N2CCOCC2)cc1)Nc1ccc2nc(-c3ccco3)c(-c3ccco3)nc2c1 | inactive | 
99 | Cc1cccc(Nc2nc(-c3ccncc3)cs2)c1 | inactive | 
100 | CCc1cccc(CC)c1NC(=S)N1CCn2cccc2C1c1cccnc1 (centres undefined) |  | outcome: inactive
101 | Cc1cc(N2CCN(C)CC2)nc2ccc(NC(=S)N3CCN(c4ccc(F)cc4)CC3)cc12 | inactive | 
102 | O=C(NNC(=O)C12CC3CC(CC(C3)C1)C2)c1ccco1 |  | outcome: inactive
103 | O=C(NCCCO)Nc1ccc2nc(-c3ccco3)c(-c3ccco3)nc2c1 | inactive | 
104 | Cc1cc(C)c(S(=O)(=O)/N=C2/C=C(SCC(=O)O)C(=O)c3ccccc32)cc1C | inactive | 
